In patent US4487937A, “2-(2-Substitutedamino-4-thiazolyl)-2-(1-methoxy-isopropoxyimino)-acetic acids” (Roussel Uclaf, priority 1977, dated 1984):
Like-named read-outs stand apart in the source and are kept apart here.

Tests used:
Assay in all cases: In vitro MIC, dilution of a liquid medium
Type in all cases: cell-based
[1] = system: Escherichia Coli Sensitive Tetracycline ATCC 9 637; details: read-out: minimum inhibiting concentration (MIC)
Procedure: (§1) The method used was a dilution of a liquid medium where a series of tubes received the same quantity of a sterile nutritive media and increasing doses of the test compounds were placed therein. Then each tube was seeded with a bacterial strain and was incubated for 24 or 48 hours at 37° C. in an oven. The increasing inhibition was determined by transillumination to determine the minimum inhibiting concentration (MIC in μg/ml) and the results are reported in the following Tables.

Providencia Du 48 = details: 37° C., read-out: minimum inhibiting concentration (MIC)
Procedure: as §1

[2] = system: Streptococcus pyogenes A 561; details: 37° C., read-out: minimum inhibiting concentration (MIC)
Procedure: as §1

[3] = system: Streptococcus faecalis 5 432; details: Enterococcus faecalis, 5432, 37° C., read-out: minimum inhibiting concentration (MIC)
Procedure: as §1

[4] = system: Salmonella typhimurium 420; details: Salmonella enterica, 37° C., read-out: minimum inhibiting concentration (MIC)
Procedure: as §1

[5] = system: Klebsiella pneumoniae 2 536 Resistant Gentamicine; details: 37° C., read-out: minimum inhibiting concentration (MIC)
Procedure: as §1

[6] = system: Proteus mirabilis (indol -) A 235; details: 37° C., read-out: minimum inhibiting concentration (MIC)
Procedure: as §1

[7] = system: Klebsiella pneumoniae Exp. 52 145; details: 37° C., read-out: minimum inhibiting concentration (MIC)
Procedure: as §1

[8] = system: Streptococcus faecalis 99 F 74; details: Enterococcus faecalis, 99F74, 37° C., read-out: minimum inhibiting concentration (MIC)
Procedure: as §1

[9] = system: Bacillus subtilis ATCC 6 633; details: 37° C., read-out: minimum inhibiting concentration (MIC)
Procedure: as §1

[10] = system: Staphylococcus aureus exp. n° 54 146; details: 37° C., read-out: minimum inhibiting concentration (MIC)
Procedure: as §1

[11] = system: Staphylococcus aureus UC 1 128 Penicillin-resistant; details: 37° C., read-out: minimum inhibiting concentration (MIC)
Procedure: as §1

[12] = system: Escherichia Coli Resistant Gentamicine, Tobramycine R 55 123 D; details: read-out: minimum inhibiting concentration (MIC)
Procedure: as §1

[13] = system: Proteus vulgaris (indol +) A 232; details: 37° C., read-out: minimum inhibiting concentration (MIC)
Procedure: as §1

[14] = system: Serratia Resistant Gentamicine 2 532; details: 37° C., read-out: minimum inhibiting concentration (MIC)
Procedure: as §1

[15] = system: Staphylococcus aureus ATCC 6 538 Penicillin-Sensitive; details: 37° C., read-out: minimum inhibiting concentration (MIC)
Procedure: as §1

[16] = system: Escherichia Coli Exp. TO26 B6; details: 37° C., read-out: minimum inhibiting concentration (MIC)
Procedure: as §1

[17] = system: Escherichia Coli Resistant Tetracycline ATCC 11 303; details: 37° C., read-out: minimum inhibiting concentration (MIC)
Procedure: as §1

Enterobacter cloacae 681 = details: 37° C., read-out: minimum inhibiting concentration (MIC)
Procedure: as §1

## CC(=O)OCC1=C(C(=O)O)N2C(=O)C(NC(=O)/C(=N\OC(C)(C)C(=O)O)c3csc(N)n3)[C@H]2SC1 (some centres unmarked) [Example 14, disodium 7-[2-(2-amino-4-thiazolyl)-2-(1-carboxy-1-methylethoxyimino)-acetamido]-3-acetoxymethyl-ceph-3-eme-4-carboxylate]
[1]; ATCC9, 24 h
  MIC: 0.5 µg/mL
[1]; ATCC9, 48 h
  MIC: 0.5 µg/mL
Providencia Du 48; DU48, 24 H
  MIC: 2 µg/mL
Providencia Du 48; DU48, 48 H
  MIC: 3 µg/mL
[2]; A561, 24 H
  MIC: 1 µg/mL
[2]; A561, 48 H
  MIC: 1 µg/mL
[3]; 24 H
  MIC: > 40 µg/mL
[3]; 48 H
  MIC: > 40 µg/mL
[4]; 24 H
  MIC: 1 µg/mL
[4]; 48 H
  MIC: 1 µg/mL
[5]; 24 H
  MIC: 1 µg/mL
[5]; 48 H
  MIC: 1 µg/mL
[6]; 24 H
  MIC: 0.05 µg/mL
[6]; 48 H
  MIC: 0.05 µg/mL
[7]; EXP.52145, 24 H
  MIC: 1 µg/mL
[7]; EXP.52145, 48 H
  MIC: 1 µg/mL
[8]; 24 H
  MIC: > 40 µg/mL
[8]; 48 H
  MIC: > 40 µg/mL
[9]; ATCC6, 24 H
  MIC: 10 µg/mL
[9]; ATCC6, 48 H
  MIC: > 40 µg/mL
[10]; 24 H
  MIC: 20 µg/mL
[10]; 48 H
  MIC: > 40 µg/mL
[11]; UC1, 24 H
  MIC: 20 µg/mL
[11]; UC1, 48 H
  MIC: 40 µg/mL
[12]; 24 h
  MIC: 0.5 µg/mL
[12]; 48 h
  MIC: 0.5 µg/mL
[13]; 24 H
  MIC: 0.1 µg/mL
[13]; 48 H
  MIC: 3 µg/mL
[14]; 24 H
  MIC: 1 µg/mL
[14]; 48 H
  MIC: 1 µg/mL
[15]; ATCC6, 24 H
  MIC: 20 µg/mL
[15]; ATCC6, 48 H
  MIC: 20 µg/mL
[16]; 24 H
  MIC: 0.5 µg/mL
[16]; 48 H
  MIC: 0.5 µg/mL
[17]; ATCC11, 24 H
  MIC: 0.2 µg/mL
[17]; ATCC11, 48 H
  MIC: 0.2 µg/mL
Enterobacter cloacae 681; 24 H
  MIC: 40 µg/mL
Enterobacter cloacae 681; 48 H
  MIC: > 40 µg/mL
